Drawing on US20250214969A1, “PROTEIN DEGRADERS AND USES THEREOF” (Kymera Therapeutics, Inc., priority 2022, published 2025), this text covers IC50 for 29 compounds.

Bounds are passed on as bounds.

As a reminder, the IC50 is the concentration at which inhibition is half-maximal.

The first assay concerns the target T1, truncated His-MBP-Tev-KLHDC2 (residues 1-363) (Homo sapiens, UniProt Q9Y2U9).
T1 construct: truncated His -MBP-Tev-KLHDC2 (residues 1-363) purified from E. coli; made in house; host or cells: E. coli
T1 sequence (Q9Y2U9 1-363): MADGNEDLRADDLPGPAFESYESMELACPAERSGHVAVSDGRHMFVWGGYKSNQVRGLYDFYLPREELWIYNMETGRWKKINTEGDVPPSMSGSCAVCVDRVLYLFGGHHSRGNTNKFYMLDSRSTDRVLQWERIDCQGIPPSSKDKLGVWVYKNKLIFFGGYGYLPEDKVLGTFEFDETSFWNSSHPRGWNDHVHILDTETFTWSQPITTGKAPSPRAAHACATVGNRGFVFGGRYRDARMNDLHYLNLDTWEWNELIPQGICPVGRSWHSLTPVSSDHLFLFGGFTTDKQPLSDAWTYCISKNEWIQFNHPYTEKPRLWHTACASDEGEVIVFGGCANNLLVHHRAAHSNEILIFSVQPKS
Briefly: KLHDC2 HTRF binding assay. Particulars: 1 nM KLHDC2 (residues 1-363), fluorescein-labeled diglycine peptide probe. (In general: Time-resolved FRET reads energy transfer from a long-lived donor to a nearby acceptor.)
Consider `O=C(Nc1ccc(=O)n(Cc2nn[nH]n2)c1)c1cccc(-c2cccnc2)c1` [I-79], for which the half-inhibitory concentration (IC50) was greater than 5000 nM.

`O=C(O)Cn1cc(N2Cc3cccc(-c4cccnc4)c3C2=O)ccc1=O` [I-80] gave a 50% inhibitory concentration (IC50) greater than 5000 nM.

Compound `O=C(O)Cn1cc(N2Cc3ccc(-c4cccnc4)cc3C2=O)ccc1=O` [I-81] returned an IC50 greater than 5000 nM.

As for `O=C(O)Cn1cc(NC(=O)[C@@H]2CCCN(c3cccnc3)C2)c(Cl)cc1=O` [I-82], the IC50 was 500 to 5000 nM.

On to `O=C(O)Cn1cc(NC(=O)[C@H]2CCCN(c3cccnc3)C2)c(Cl)cc1=O` [I-83], for which the half-maximal inhibitory concentration (IC50) was 50 to 500 nM.

Turning to `Cc1cc(=O)n(CC(=O)O)cc1NC(=O)[C@H]1CCCN(c2cccnc2)C1` [I-84], the IC50 lay within 50 to 500 nM.

With `O=C(O)Cn1cc(NC(=O)c2nccc(-c3cccnc3)n2)ccc1=O` [I-85], the IC50 lay within 500 to 5000 nM.

`O=C(O)CN1CC(NC(=O)c2cccc(-c3cccnc3)c2)CCC1=O` (stereo not shown) [I-86] had a concentration for half-maximal inhibition (IC50) greater than 5000 nM.

`O=C(O)Cn1cc(Nc2ncnc3c(-c4cccnc4)cccc23)ccc1=O` [I-87] came in with a half-maximal inhibitory concentration (IC50) greater than 5000 nM.

Take `O=C(O)Cn1cc(NC(=O)c2cc(-c3cccnc3)c3ccccc3c2)ccc1=O` [I-88]: the IC50 lay within 500 to 5000 nM.

Turning to `O=C(O)Cn1cc(N2CCc3ccc(-c4cccnc4)cc3C2=O)ccc1=O` [I-89], the half-inhibitory concentration (IC50) was 50 to 500 nM.

Compound `O=C(O)CC1CN(C(=O)c2cccc(-c3cccnc3)c2)CCO1` (stereo not shown) [I-90] returned an IC50 greater than 5000 nM.

As for `O=C(O)Cn1cc(NC(=O)[C@H]2CCCN(c3cccnc3)C2)ccc1=O` [I-91], the concentration for half-maximal inhibition (IC50) is less than 50 nM.

Consider `O=C(O)Cn1cc(NC(=O)[C@@H]2CCCN(c3cccnc3)C2)ccc1=O` [I-92], for which the IC50 was in the range of 50 to 500 nM.

Compound `O=C(O)Cn1cc(Nc2nccc3c(-c4cccnc4)cccc23)ccc1=O` [I-93] gave an IC50 greater than 5000 nM.

Consider `O=C(O)CCn1cc(NC(=O)c2cccc(-c3cccnc3)c2)ccc1=O` [I-94], for which the IC50 is greater than 5000 nM.

In turn, `O=C(O)Cn1cc(N2CCc3ccccc3C2=O)ccc1=O` [I-95] displayed an IC50 of 500 to 5000 nM.

In turn, `Cc1cc(=O)n(CC(=O)O)cc1NC(=O)c1cccc(-c2cccnc2)c1` [I-96] returned an IC50 of 50 to 500 nM.

Compound `O=C(O)Cn1cc(NC(=O)c2cccc(-c3cccnc3)c2)c(Cl)cc1=O` [I-97] displayed a 50% inhibitory concentration (IC50) of 50 to 500 nM.

Turning to `CCOC(=O)Cn1cc(NC(=O)c2cccc(-c3cccnc3)c2)ccc1=O` [I-98], the concentration for half-maximal inhibition (IC50) was greater than 5000 nM.

`NCCCCCCCCCc1ccc2c(-c3cccc(C(=O)Nc4ccc(=O)n(CC(=O)O)c4)c3)cncc2c1` [I-107] yielded an IC50 of less than 50 nM.

For the compound `NCCCCCCCCCc1cccc2c(-c3cccc(C(=O)Nc4ccc(=O)n(CC(=O)O)c4)c3)cncc12` [I-109], the IC50 lay within 50 to 500 nM.

`NCCCCCCc1cccc2c(-c3cccc(C(=O)Nc4ccc(=O)n(CC(=O)O)c4)c3)cncc12` [I-110] returned an IC50 of 50 to 500 nM.

Turning to `NC(=O)Cn1cc(NC(=O)c2cccc(-c3cncc4ccccc34)c2)ccc1=O` [I-122], the IC50 is greater than 5000 nM.

With `NC(=O)Cn1cc(NC(=O)c2cccc(-c3cccnc3)c2)ccc1=O` [I-123], the concentration for half-maximal inhibition (IC50) was greater than 5000 nM.

`O=C(O)Cn1cc(NC(=O)c2cccc(-c3cncc4ccccc34)c2)ccc1=O` [I-131] gave an IC50 of less than 50 nM.

Regarding `CC(C)Cn1ccc2c(C(=O)Nc3ccc(=O)n(CC(=O)O)c3)ccnc21` [I-132], the IC50 lay in the range of 500 to 5000 nM.

Turning to `CC(C)Cn1cnc2c(C(=O)Nc3ccc(=O)n(CC(=O)O)c3)cccc21` [I-133], the IC50 is 500 to 5000 nM.

For `COc1cc(-c2ccc(Cl)cc2)ccc1C(=O)Nc1ccc(=O)n(CC(=O)O)c1` [I-134], the IC50 was 50 to 500 nM.

In another assay the target is T1, truncated His-MBP-Tev-KLHDC2 (residues 1-363). Briefly: KLHDC2 FP competition binding assay. The following applies: 15 nM KLHDC2 (residues 1-363), 10 nM fluorescein-labeled diglycine peptide probe, read-out: KLHDC2 binding Human FP: average external IC50.
`O=C(Nc1ccc(=O)n(Cc2nn[nH]n2)c1)c1cccc(-c2cccnc2)c1` [I-79]: the IC50 is greater than 5 µM.

In the case of `O=C(O)Cn1cc(N2Cc3cccc(-c4cccnc4)c3C2=O)ccc1=O` [I-80], the IC50 is greater than 5 µM.

For `O=C(O)Cn1cc(N2Cc3ccc(-c4cccnc4)cc3C2=O)ccc1=O` [I-81], the concentration for half-maximal inhibition (IC50) is greater than 5 µM.

With `O=C(O)Cn1cc(NC(=O)[C@@H]2CCCN(c3cccnc3)C2)c(Cl)cc1=O` [I-82], the IC50 is greater than 5 µM.

Regarding `O=C(O)Cn1cc(NC(=O)[C@H]2CCCN(c3cccnc3)C2)c(Cl)cc1=O` [I-83], the IC50 fell in the range of 0.5 to 5 µM.

Regarding `Cc1cc(=O)n(CC(=O)O)cc1NC(=O)[C@H]1CCCN(c2cccnc2)C1` [I-84], the half-maximal inhibitory concentration (IC50) was 0.5 to 5 µM.

Turning to `O=C(O)Cn1cc(NC(=O)c2nccc(-c3cccnc3)n2)ccc1=O` [I-85], the concentration for half-maximal inhibition (IC50) is 0.5 to 5 µM.

Take `O=C(O)CN1CC(NC(=O)c2cccc(-c3cccnc3)c2)CCC1=O` (stereo not shown) [I-86]: the IC50 is greater than 5 µM.

`O=C(O)Cn1cc(Nc2ncnc3c(-c4cccnc4)cccc23)ccc1=O` [I-87]: the half-maximal inhibitory concentration (IC50) was greater than 5 µM.

Take `O=C(O)Cn1cc(NC(=O)c2cc(-c3cccnc3)c3ccccc3c2)ccc1=O` [I-88]: the half-inhibitory concentration (IC50) is 0.5 to 5 µM.

`O=C(O)Cn1cc(N2CCc3ccc(-c4cccnc4)cc3C2=O)ccc1=O` [I-89]: the IC50 lay in the range of 0.5 to 5 µM.

Regarding `O=C(O)CC1CN(C(=O)c2cccc(-c3cccnc3)c2)CCO1` (stereo not shown) [I-90], the IC50 is greater than 5 µM.

With `O=C(O)Cn1cc(NC(=O)[C@H]2CCCN(c3cccnc3)C2)ccc1=O` [I-91], the 50% inhibitory concentration (IC50) was in the range of 0.05 to 0.5 µM.

Regarding `O=C(O)Cn1cc(NC(=O)[C@@H]2CCCN(c3cccnc3)C2)ccc1=O` [I-92], the IC50 was 0.5 to 5 µM.

In the case of `O=C(O)Cn1cc(Nc2nccc3c(-c4cccnc4)cccc23)ccc1=O` [I-93], the 50% inhibitory concentration (IC50) was greater than 5 µM.

In the case of `O=C(O)CCn1cc(NC(=O)c2cccc(-c3cccnc3)c2)ccc1=O` [I-94], the concentration for half-maximal inhibition (IC50) is greater than 5 µM.

For `O=C(O)Cn1cc(N2CCc3ccccc3C2=O)ccc1=O` [I-95], the half-maximal inhibitory concentration (IC50) is greater than 5 µM.

Turning to `Cc1cc(=O)n(CC(=O)O)cc1NC(=O)c1cccc(-c2cccnc2)c1` [I-96], the concentration for half-maximal inhibition (IC50) was in the range of 0.5 to 5 µM.

In the case of `O=C(O)Cn1cc(NC(=O)c2cccc(-c3cccnc3)c2)c(Cl)cc1=O` [I-97], the IC50 lay in the range of 0.5 to 5 µM.

Regarding `CCOC(=O)Cn1cc(NC(=O)c2cccc(-c3cccnc3)c2)ccc1=O` [I-98], the IC50 was greater than 5 µM.

On to `NCCCCCCCCCc1ccc2c(-c3cccc(C(=O)Nc4ccc(=O)n(CC(=O)O)c4)c3)cncc2c1` [I-107], for which the IC50 is greater than 5 µM.

Regarding `NCCCCCCCCCc1cccc2c(-c3cccc(C(=O)Nc4ccc(=O)n(CC(=O)O)c4)c3)cncc12` [I-109], the IC50 was greater than 5 µM.

Take `NCCCCCCc1cccc2c(-c3cccc(C(=O)Nc4ccc(=O)n(CC(=O)O)c4)c3)cncc12` [I-110]: the IC50 was greater than 5 µM.

On to `NC(=O)Cn1cc(NC(=O)c2cccc(-c3cncc4ccccc34)c2)ccc1=O` [I-122], for which the IC50 is greater than 5 µM.

With `NC(=O)Cn1cc(NC(=O)c2cccc(-c3cccnc3)c2)ccc1=O` [I-123], the IC50 was greater than 5 µM.

For the compound `O=C(O)Cn1cc(NC(=O)c2cccc(-c3cncc4ccccc34)c2)ccc1=O` [I-131], the IC50 was in the range of 0.5 to 5 µM.

Regarding `CC(C)Cn1ccc2c(C(=O)Nc3ccc(=O)n(CC(=O)O)c3)ccnc21` [I-132], the half-inhibitory concentration (IC50) was greater than 5 µM.

Regarding `CC(C)Cn1cnc2c(C(=O)Nc3ccc(=O)n(CC(=O)O)c3)cccc21` [I-133], the concentration for half-maximal inhibition (IC50) was greater than 5 µM.

Consider `COc1cc(-c2ccc(Cl)cc2)ccc1C(=O)Nc1ccc(=O)n(CC(=O)O)c1` [I-134], for which the IC50 was in the range of 0.5 to 5 µM.
